Assays:
HEK293 cells [1] = test: Preliminary screening as mRNA vectors, EGFP mRNA transfection of HEK293 cells; format: cell-based; settings: HEK293 cells, 96-well plates, EGFP mRNA 50 ng per well; percentage of GFP fluorescent cells relative to total number of cells (Hoechst)
Outline: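 Each well of HEK293 cells received 50 ng of EGFP mRNA. Efficiency was expressed as percent GFP-expressing cells over Hoechst-defined total cell number.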

HEK293 cells [2] = test: Preliminary screening as DNA vectors, GFP transfection of HEK293 cells; format: cell-based; settings: HEK293 cells; lipid/DOPE liposome with 75 ng plasmid DNA (psin-EGFP-IRES-Puro); number of cells expressing GFP divided by total number of nuclei (Hoechst)
Outline: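 Lipid + DOPE liposomes (NaOAc, pH 5.6) complexed w/ 75 ng psin-EGFP-IRES-Puro, 30 min RT; added to 3-5×10^4 HEK293/well, 37° C. Hoechst 0.2 μg/mL at 20-24 h, imaged after further 20-24 h. Efficiency = GFP+ cells / total nuclei.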

Structure (SMILES) | Absolute mRNA transfection efficiency in HEK293 cells (HEK293 cells [1]) | Absolute DNA transfection efficiency in HEK293 cells (HEK293 cells [2])
CCCCCCCCCCCCCCCCCCSc1nc(NCCCN2CCN(C)CC2)nc(SCCCCCCCCC)n1 [Compound S9S18D9] | 4.0% | 0.0%
CCCCCCCCCCCCCCCCCCSc1nc(NCCN2CCCCC2)nc(SCCCCCCCCC)n1 [Compound S9S18D4] | 0.6% | 5.5%
CCCCCCCCCCCCCCCSc1nc(NCCCN2CCN(C)CC2)nc(SCCCCCCCCCCCC)n1 [Compound S12S15D9] | 0.9% | 2.0%
CCCCCCCCCCCCCCCCSc1nc(NCCCN(C)C)nc(SCCCCCCCCCCC)n1 [Compound S11S16D6] | 9.3% | 2.7%
CCCCCCCCCCCCCCCSc1nc(NCCN2CCOCC2)nc(SCCCCCCCCCCC)n1 [Compound S11S15D2] | 0.0% | 0.3%
CCCCCCCCCCCCCCCNc1nc(NCCCCCCCCCCC)nc(NCCCN2CCOCC2)n1 [Compound N11N15D8] | 0.5% | 1.1%
CCCCCCCCCCCCCCCCCCSc1nc(NCCN2CCN(C)CC2)nc(SCCCCCCCC)n1 [Compound S8S18D5] | 27.5% | 9.6%
CCCCCCCCCCCSc1nc(NCCN(CC)CC)nc(SCCCCCCCCCCC)n1 [Compound S11S11D7] | 0.0% | 0.0%
CCCCCCCCCCCCSc1nc(NCCN2CCCC2)nc(SCCCCCCCCCCCC)n1 [Compound S12S12D3] | 11.0% | 2.1%
CCCCCCCCCCCCCCSc1nc(NCCN2CCCCC2)nc(SCCCCCCCC)n1 [Compound S8S14D4] | 3.1% | 9.3%
CCCCCCCCCCCNc1nc(NCCCCCCCCCCC)nc(NCCN(C)C)n1 [Compound N11N11D1] | 4.3% | 0.9%
CCCCCCCCCCCCCNc1nc(NCCCCCCCCCCC)nc(NCCN2CCCC2)n1 [Compound N11N13D3] | 3.6% | 0.0%
CCCCCCCCCCCCCCCCSc1nc(NCCN(C)C)nc(SCCCCCCCCCC)n1 [Compound S10S16D1] | 0.1% | 7.2%
CCCCCCCCCCCCCCCCCCNc1nc(NCCCCCCCCCCC)nc(NCCN2CCCCC2)n1 [Compound N11N18D4] | 2.3% | 1.9%
CCCCCCCCCCCCCCCCNc1nc(NCCCCCCCC)nc(NCCN(C)C)n1 [Compound N8N16D1] | 4.6% | 3.8%
CCCCCCCCCCCCNc1nc(NCCCCCCCC)nc(NCC2CCN(C)CC2)n1 [Compound N8N12D10] | 2.3% | 0.7%
CCCCCCCCCCCCN(CCCCCCCCCCCC)c1nc(NCCN2CCCCC2)nc(N(CCCCCCCCCCCC)CCCCCCCCCCCC)n1 [2N12^2N12D4] | 2.6% | 0.0%
CCCCCCCCCCCCCCCCSc1nc(NCCCN2CCOCC2)nc(SCCCCCCCCCCCCCCC)n1 [Compound S15S16D8] | 0.0% | 0.0%
CCCCCCCCCCCCCCCCNc1nc(NCCCCCCCC)nc(NCCN(CC)CC)n1 [Compound N8N16D7] | 0.3% | 3.1%
CCCCCCCCCCCCCCCSc1nc(NCCCN(C)C)nc(SCCCCCCCCCCCCCC)n1 [Compound S14S15D6] | 0.1% | 0.2%
CCCCCCCCCCCCSc1nc(NCCN2CCCC2)nc(SCCCCCCCCCC)n1 [Compound S10S12D3] | 7.6% | 8.2%
CCCCCCCCCCCCNc1nc(NCCCCCCC)nc(NCCN(CC)CC)n1 [Compound N7N12D7] | 0.0% | 0.0%
CCCCCCCCNc1nc(NCCCCCCCC)nc(NCC2CCN(C)CC2)n1 [Compound N8N8D10] | 0.0% | 0.0%

From patent US20230123334A1, “AMINO LIPID COMPOUND, PREPARATION METHOD THEREFOR, AND APPLICATION THEREOF” (SHENZHEN SHENXIN BIOTECHNOLOGY CO., LTD., priority 2020, published 2023)
